Activity calls are given as the source filed them. No cut-off for these calls is given here.
Tests used:
MGC-803 [1] = assay: Induction of apoptosis in human MGC-803 cells assessed as necrotic cells at 5 uM incubated for 48 hrs by annexin V FITC/propidium iodide staining based flow cytometry (reference value: 1.06 %); format: functional
MGC-803 [2] = assay: Induction of apoptosis in human MGC-803 cells assessed as viable cells at 5 uM incubated for 48 hrs by annexin V FITC/propidium iodide staining based flow cytometry (reference value: 94.4 %); format: functional; conditions: read-out: Activity
MGC-803 [3] = assay: Induction of apoptosis in human MGC-803 cells assessed as necrotic cells at 2.5 uM incubated for 48 hrs by annexin V FITC/propidium iodide staining based flow cytometry (reference value: 1.06 %); format: functional
MGC-803 [4] = assay: Induction of apoptosis in human MGC-803 cells assessed as late apoptotic cells at 5 uM incubated for 48 hrs by annexin V FITC/propidium iodide staining based flow cytometry (reference value: 4.07 %); format: functional
HGC-27 [5] = assay: Induction of apoptosis in human HGC-27 cells assessed as reduction in caspase-3 level incubated for 48 hrs by Western blot analysis; format: functional, cell-based; conditions: dose 0.1-8 µM, DDE = dose-dependent effect
MGC-803 [6] = assay: Induction of morphological changes in human MGC-803 cells assessed as cytomembrane foaming incubated for 36 hrs by Giemsa staining based microscopic analysis; format: functional, cell-based; conditions: dose 2.5-20 µM
HGC-27 [7] = assay: Inhibition of cell migration in human HGC-27 cells measured after 24 hrs by wound healing assay; format: functional, cell-based; conditions: dose 0.05-2 µM, DDE = dose-dependent effect
HGC-27 [8] = assay: Induction of cell cycle arrest in human HGC-27 cells assessed as downregulation of CDK1 expression incubated for 48 hrs by Western blot analysis; format: functional, cell-based; conditions: dose 0.1-8 µM
HGC-27 [9] = assay: Induction of cell cycle arrest in human HGC-27 cells assessed as downregulation of cyclin B1 expression incubated for 48 hrs by Western blot analysis; format: functional, cell-based; conditions: dose 0.1-8 µM
MGC-803 [10] = assay: Inhibition of cell migration in human MGC-803 cells measured after 24 hrs by wound healing assay; format: functional, cell-based; conditions: dose 1.25-10 µM, DDE = dose-dependent effect
MGC-803 [11] = assay: Anti-invasion activity against human MGC-803 cells assessed as inhibition of invasion incubated for 24 hrs by transwell invasion assay; format: functional, cell-based; conditions: dose 1.25-10 µM, DDE = dose-dependent effect
MGC-803 [12] = assay: Induction of apoptosis in human MGC-803 cells assessed as late apoptotic cells at 10 uM incubated for 48 hrs by annexin V FITC/propidium iodide staining based flow cytometry (reference value: 4.07 %); format: functional
HGC-27 [13] = assay: Antiproliferative activity against human HGC-27 cells measured after 24 hrs by […]; format: functional, cell-based; conditions: HGC-27, 24 h
HGC-27 [14] = assay: Induction of morphological changes in human HGC-27 cells assessed as cytomembrane foaming incubated for 36 hrs by Giemsa staining based microscopic analysis; format: functional, cell-based; conditions: dose 0.1-8 µM
MGC-803 [15] = assay: Induction of apoptosis in human MGC-803 cells assessed as early apoptotic cells at 10 uM incubated for 48 hrs by annexin V FITC/propidium iodide staining based flow cytometry (reference value: 0.42 %); format: functional
[16] = MRT (0 to t) in Sprague-Dawley rat at 100 mg/kg, po measured up to 24 hrs by LC-MS/MS analysis; format: ADME, organism-based; conditions: in vivo
[17] = Cmax in Sprague-Dawley rat at 100 mg/kg, po measured up to 24 hrs by LC-MS/MS analysis; format: ADME, organism-based; set-up: dose 100 mg/kg, time < 24 hrs, route po; conditions: in vivo
MGC-803 [18] = assay: Induction of apoptosis in human MGC-803 cells assessed as viable cells at 10 uM incubated for 48 hrs by annexin V FITC/propidium iodide staining based flow cytometry (reference value: 94.4 %); format: functional; conditions: read-out: Activity
HGC-27 [19] = assay: Induction of cell cycle arrest in human HGC-27 cells assessed as downregulation of cyclin A expression incubated for 48 hrs by Western blot analysis; format: functional, cell-based; conditions: dose 0.1-8 µM
HGC-27 [20] = assay: Induction of apoptosis in human HGC-27 cells assessed as reduction in caspase-9 level incubated for 48 hrs by Western blot analysis; format: functional, cell-based; conditions: dose 0.1-8 µM, DDE = dose-dependent effect
MGC-803 [21] = assay: Induction of morphological changes in human MGC-803 cells assessed as chromatin condensation incubated for 36 hrs by Giemsa staining based microscopic analysis; format: functional, cell-based; conditions: dose 2.5-20 µM
MGC-803 [22] = assay: Induction of apoptosis in human MGC-803 cells assessed as early apoptotic cells at 5 uM incubated for 48 hrs by annexin V FITC/propidium iodide staining based flow cytometry (reference value: 0.42 %); format: functional
HGC-27 [23] = assay: Induction of morphological changes in human HGC-27 cells assessed as chromatin condensation incubated for 36 hrs by Giemsa staining based microscopic analysis; format: functional, cell-based; conditions: dose 0.1-8 µM
[24] = AUC (0 to t) in Sprague-Dawley rat at 100 mg/kg, po measured up to 24 hrs by LC-MS/MS analysis; format: ADME, organism-based; set-up: dose 100 mg/kg, time < 24 hrs, route po; conditions: in vivo
[25] = Tmax in Sprague-Dawley rat at 100 mg/kg, po measured up to 24 hrs by LC-MS/MS analysis; format: ADME, organism-based; conditions: in vivo
HGC-27 [26] = assay: Induction of cell cycle arrest in human HGC-27 cells assessed as downregulation of CDK2 expression incubated for 48 hrs by Western blot analysis; format: functional, cell-based; conditions: dose 0.1-8 µM
HGC-27 [27] = assay: Induction of apoptosis in human HGC-27 cells assessed as reduction in Bcl-2 level incubated for 48 hrs by Western blot analysis; format: functional, cell-based; conditions: dose 0.1-8 µM, DDE = dose-dependent effect
MGC-803 [28] = assay: Induction of apoptosis in human MGC-803 cells assessed as late apoptotic cells at 2.5 uM incubated for 48 hrs by annexin V FITC/propidium iodide staining based flow cytometry (reference value: 4.07 %); format: functional
MGC-803 [29] = assay: Induction of apoptosis in human MGC-803 cells assessed as necrotic cells at 10 uM incubated for 48 hrs by annexin V FITC/propidium iodide staining based flow cytometry (reference value: 1.06 %); format: functional
HGC-27 [30] = assay: Anti-invasion activity against human HGC-27 cells assessed as inhibition of invasion incubated for 24 hrs by transwell invasion assay; format: functional, cell-based; conditions: dose 0.05-2 µM, DDE = dose-dependent effect
[31] = Half life in Sprague-Dawley rat at 100 mg/kg, po measured up to 24 hrs by LC-MS/MS analysis; format: ADME, organism-based; conditions: in vivo
MGC-803 [32] = assay: Induction of apoptosis in human MGC-803 cells assessed as necrotic cells at 20 uM incubated for 48 hrs by annexin V FITC/propidium iodide staining based flow cytometry (reference value: 1.06 %); format: functional
HGC-27 [33] = assay: Induction of apoptosis in human HGC-27 cells assessed as late apoptotic cells at 0.4 uM incubated for 48 hrs by annexin V FITC/propidium iodide staining based flow cytometry (reference value: 5.14 %); format: functional
HGC-27 [34] = assay: Induction of apoptosis in human HGC-27 cells assessed as viable cells at 0.1 uM incubated for 48 hrs by annexin V FITC/propidium iodide staining based flow cytometry (reference value: 93.0 %); format: functional; conditions: read-out: Activity
HGC-27 [35] = assay: Induction of apoptosis in human HGC-27 cells assessed as upregulation in cleaved PARP expression at 0.1 to 1.6 uM incubated for 48 hrs by Western blot analysis; format: functional, cell-based; conditions: dose 0.1-1.6 µM
HGC-27 [36] = assay: Antitumor activity against human HGC-27 cells xenografted in BALB/c mouse assessed as tumor growth inhibition at 75 mg/kg, po bid administered for 19 days; format: functional; conditions: HGC-27, 456 h, time 19 day, read-out: TGI
[37] = Toxicity in BALB/c mouse xenografted with human HGC-27 cells assessed as platelet distribution width at 150 mg/kg, po bid for 19 days; format: organism-based; conditions: in vivo, 456 h, time 19 day
[38] = Toxicity in BALB/c mouse xenografted with human HGC-27 cells assessed as red blood cell distribution width at 150 mg/kg, po bid for 19 days; format: organism-based; conditions: in vivo, 456 h, time 19 day

Compound	Activity (MGC-803 [1])	viability at 5 µM (MGC-803 [2])	Activity (MGC-803 [4])	Activity (HGC-27 [5])	Activity (MGC-803 [6])	inhibition (HGC-27 [7])	Activity (HGC-27 [8])	Activity (HGC-27 [9])	inhibition (MGC-803 [10])	Activity (MGC-803 [11])	Activity (MGC-803 [12])	IC50 (HGC-27 [13])	Activity (HGC-27 [14])	Activity (MGC-803 [15])	MRT last at 24 h [16]	Cmax [17]	viability at 10 µM (MGC-803 [18])	Activity (HGC-27 [19])	Activity (HGC-27 [20])	Activity (MGC-803 [21])	other results
O=C(NCc1ccc(NC(=O)c2ccccc2N2CCCC2)cc1)OCc1cccnc1	2.47%	65%	17%	Dde	Active	Dde	Active	Active	Dde	Dde	18.2%	1840 nM	Active	19.1%	1.88 h	4090 ng/mL	59.4%	Active	Dde	Active	Activity (MGC-803 [3]): 4.32%; Activity (MGC-803 [22]): 15.5%; Activity (HGC-27 [23]): Active; AUC(0-t) at 24 h [24]: 4720 ng·h/mL; Tmax [25]: 30 min; Activity (HGC-27 [26]): Active; Activity (HGC-27 [27]): Dde; Activity (MGC-803 [28]): 14.6%; Activity (MGC-803 [29]): 3.27%; Activity (HGC-27 [30]): Dde; half-life [31]: 93.6 min
O=C(NCc1ccc(NC(=O)c2cc(F)ccc2N2CCCC2)cc1)OCc1cccnc1	5.22%	81.1%	10.4%	Dde	Active	Dde	Active	Active	Dde	Dde	8.86%	280 nM	Active	7.31%	4.25 h	3980 ng/mL	82%	Active	Dde	Active	Activity (MGC-803 [32]): 2.74%; Activity (HGC-27 [33]): 21.3%; viability at 0.1 µM (HGC-27 [34]): 83.5%; Activity (HGC-27 [35]): Active; inhibition in vivo at 75 mg/kg (HGC-27 [36]): 52.4%; Activity [37]: 17.45; Activity (MGC-803 [22]): 3.23%; Activity [38]: 15.33%; Activity (HGC-27 [23]): Active; AUC(0-t) at 24 h [24]: 7310 ng·h/mL; Tmax [25]: 72 min; Activity (HGC-27 [26]): Active; Activity (HGC-27 [27]): Dde; Activity (MGC-803 [29]): 1.84%; Activity (HGC-27 [30]): Dde; half-life [31]: 150 min
